According to patent US9096591B2, “Tetracyclic compounds” (Medivation Technologies, Inc., priority 2007, dated 2015):
Like-named read-outs stand apart in the source and are kept apart here.

What was measured:
[1] = target: T1, human recombinant dopamine D2L receptor (Homo sapiens, UniProt P14416); experiment: Dopamine D2L radioligand binding ([3H]Spiperone); settings: for Inhibition of ligand binding, Dop. D2L: percent inhibition of specific binding
T1 construct: expressed in transfected cells; host or cells: CHO cells
T1 sequence (P14416 whole entry): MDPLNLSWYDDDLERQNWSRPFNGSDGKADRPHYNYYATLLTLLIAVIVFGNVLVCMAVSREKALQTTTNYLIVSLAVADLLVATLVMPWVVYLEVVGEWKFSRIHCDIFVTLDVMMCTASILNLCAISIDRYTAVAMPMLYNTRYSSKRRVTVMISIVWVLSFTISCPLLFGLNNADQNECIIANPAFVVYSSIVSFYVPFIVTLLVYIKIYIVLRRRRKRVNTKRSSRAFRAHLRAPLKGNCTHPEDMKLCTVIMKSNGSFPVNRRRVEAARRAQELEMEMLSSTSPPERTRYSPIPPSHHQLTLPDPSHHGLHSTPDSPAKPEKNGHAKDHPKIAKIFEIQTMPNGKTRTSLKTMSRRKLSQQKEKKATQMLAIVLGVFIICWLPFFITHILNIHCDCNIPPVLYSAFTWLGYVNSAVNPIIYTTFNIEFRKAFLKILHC
Description: Non-specific binding was estimated in the presence of 10 μM Haloperidol. Receptor proteins were filtered and washed, the filters were then counted to determine [^3H]Spiperone specifically bound. […] Biochemical assay results are presented as the percent inhibition of specific binding in Table 6.

[2] = target: T2, Serotonin (5-Hydroxytryptamine) 5-HT7 (Homo sapiens, UniProt P34969); experiment: Serotonin 5-HT7 radioligand binding ([3H]LSD); parameters: Inhibition of ligand binding, Ser. 5-HT7: concentration or dose not given beside the values; settings: for Inhibition of ligand binding, Ser. 5-HT7: percent inhibition of specific binding
T2 construct: expressed in transfected cells; host or cells: CHO cells
T2 sequence (P34969 whole entry): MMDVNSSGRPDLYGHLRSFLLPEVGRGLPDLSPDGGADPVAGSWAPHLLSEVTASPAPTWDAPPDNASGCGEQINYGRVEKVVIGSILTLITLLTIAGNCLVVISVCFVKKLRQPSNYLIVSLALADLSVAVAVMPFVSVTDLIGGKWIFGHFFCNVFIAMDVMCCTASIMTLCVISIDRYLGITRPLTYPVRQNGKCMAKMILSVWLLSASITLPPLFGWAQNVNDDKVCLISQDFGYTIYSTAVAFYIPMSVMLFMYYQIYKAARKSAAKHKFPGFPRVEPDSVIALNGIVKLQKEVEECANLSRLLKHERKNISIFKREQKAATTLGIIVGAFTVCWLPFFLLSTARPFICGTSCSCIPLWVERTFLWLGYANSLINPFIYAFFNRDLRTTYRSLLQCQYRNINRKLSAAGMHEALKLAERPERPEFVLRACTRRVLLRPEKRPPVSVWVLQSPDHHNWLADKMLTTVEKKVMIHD
Description: Lysergic acid diethylamide (LSD) for 2 hours at 25° C. […] Receptor proteins were filtered and washed, the filters were then counted to determine [^3H]LSD specifically bound. […] Biochemical assay results are presented as the percent inhibition of specific binding in Table 6.

[3] = target: T3, human recombinant serotonin (5-Hydroxytryptamine) 5-HT6 receptor (Homo sapiens, UniProt P50406); experiment: Serotonin 5-HT6 radioligand binding ([3H]LSD); parameters: Inhibition of ligand binding, Ser. 5-HT6: concentration or dose not given beside the values; settings: for Inhibition of ligand binding, Ser. 5-HT6: percent inhibition of specific binding
T3 construct: expressed in transfected cells; host or cells: human HeLa cells
T3 sequence (P50406 whole entry): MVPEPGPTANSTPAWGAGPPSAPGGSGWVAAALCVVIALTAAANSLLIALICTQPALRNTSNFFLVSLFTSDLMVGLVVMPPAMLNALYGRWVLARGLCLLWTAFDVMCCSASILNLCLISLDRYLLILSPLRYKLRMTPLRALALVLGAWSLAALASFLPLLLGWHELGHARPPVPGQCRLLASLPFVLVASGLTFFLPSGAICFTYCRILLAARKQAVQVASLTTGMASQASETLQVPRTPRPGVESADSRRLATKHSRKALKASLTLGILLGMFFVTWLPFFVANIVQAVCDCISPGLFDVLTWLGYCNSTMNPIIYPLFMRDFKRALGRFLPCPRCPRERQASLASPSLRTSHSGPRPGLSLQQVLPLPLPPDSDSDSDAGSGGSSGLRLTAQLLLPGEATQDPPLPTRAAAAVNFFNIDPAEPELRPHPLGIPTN
Source text: Receptor proteins were filtered and washed, the filters were then counted to determine [3H]LSD specifically bound. […] Biochemical assay results are presented as the percent inhibition of specific binding in Table 6.

[4] = target: T4, human recombinant histamine H2 receptor (Homo sapiens, UniProt P25021); experiment: Histamine H2 radioligand binding ([125I]Aminopotentidine); settings: for inhibition at 0.1 µM: 0.1 μM compound
T4 construct: expressed in transfected cells; host or cells: CHO-K1 cells
T4 sequence (P25021 whole entry): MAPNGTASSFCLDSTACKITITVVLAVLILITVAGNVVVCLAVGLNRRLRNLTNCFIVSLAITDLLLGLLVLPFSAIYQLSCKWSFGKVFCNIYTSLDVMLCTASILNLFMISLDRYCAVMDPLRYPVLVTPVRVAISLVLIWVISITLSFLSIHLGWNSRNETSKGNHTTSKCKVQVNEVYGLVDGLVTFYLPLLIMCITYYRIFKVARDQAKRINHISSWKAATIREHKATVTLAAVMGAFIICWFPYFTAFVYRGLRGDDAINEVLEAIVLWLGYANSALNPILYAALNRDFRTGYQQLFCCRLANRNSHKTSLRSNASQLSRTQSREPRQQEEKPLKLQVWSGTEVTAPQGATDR
Method in brief: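 Test compounds were assessed for their ability to displace radioligand from the human recombinant histamine H2 receptor. Non-specific binding was determined in the presence of 3 μM Tiotidine, and results were expressed as percent inhibition of specific binding, with 1% DMSO serving as the vehicle.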

[5] = target: T5, human recombinant serotonin (5-Hydroxytryptamine) 5-HT2C receptor (Homo sapiens, UniProt P28335); experiment: Serotonin 5-HT2C radioligand binding ([3H]Mesulergine); parameters: Inhibition of ligand binding, Ser. 5-HT2C: concentration or dose not given beside the values; settings: for Inhibition of ligand binding, Ser. 5-HT2C: percent inhibition of specific binding
T5 construct: expressed in transfected cells; host or cells: CHO-K1 cells
T5 sequence (P28335 33-458): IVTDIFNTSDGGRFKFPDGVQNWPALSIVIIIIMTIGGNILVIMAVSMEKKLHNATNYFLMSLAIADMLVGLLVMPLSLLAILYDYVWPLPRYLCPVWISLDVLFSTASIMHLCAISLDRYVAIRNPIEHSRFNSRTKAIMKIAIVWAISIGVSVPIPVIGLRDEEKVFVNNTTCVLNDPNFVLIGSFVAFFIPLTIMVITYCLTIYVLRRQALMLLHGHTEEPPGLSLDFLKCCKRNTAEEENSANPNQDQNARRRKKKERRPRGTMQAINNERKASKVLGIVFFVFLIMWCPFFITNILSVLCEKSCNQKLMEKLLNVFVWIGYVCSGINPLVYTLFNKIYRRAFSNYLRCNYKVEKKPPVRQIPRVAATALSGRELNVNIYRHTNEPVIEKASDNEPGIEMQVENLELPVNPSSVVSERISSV
Description: Compounds of the invention were incubated with 1 nM [^3H]Mesulergine for 60 minutes at 25° C. Non-specific binding was estimated in the presence of 1 μM Mianserin. Receptor proteins were filtered and washed, the filters were then counted to determine [^3H]Mesulergine specifically bound. […] Biochemical assay results are presented as the percent inhibition of specific binding in Table 6.

[6] = target: T6, human recombinant adrenergic α2A receptor (Homo sapiens, UniProt P08913); experiment: Adrenergic α2A radioligand binding ([3H]MK-912); parameters: Inhibition of ligand binding, Adren. alpha2A: concentration or dose not given beside the values; settings: for Inhibition of ligand binding, Adren. alpha2A: percent inhibition of specific binding
T6 construct: expressed in transfected cells; host or cells: insect Sf9 cells
T6 sequence (P08913 1-465): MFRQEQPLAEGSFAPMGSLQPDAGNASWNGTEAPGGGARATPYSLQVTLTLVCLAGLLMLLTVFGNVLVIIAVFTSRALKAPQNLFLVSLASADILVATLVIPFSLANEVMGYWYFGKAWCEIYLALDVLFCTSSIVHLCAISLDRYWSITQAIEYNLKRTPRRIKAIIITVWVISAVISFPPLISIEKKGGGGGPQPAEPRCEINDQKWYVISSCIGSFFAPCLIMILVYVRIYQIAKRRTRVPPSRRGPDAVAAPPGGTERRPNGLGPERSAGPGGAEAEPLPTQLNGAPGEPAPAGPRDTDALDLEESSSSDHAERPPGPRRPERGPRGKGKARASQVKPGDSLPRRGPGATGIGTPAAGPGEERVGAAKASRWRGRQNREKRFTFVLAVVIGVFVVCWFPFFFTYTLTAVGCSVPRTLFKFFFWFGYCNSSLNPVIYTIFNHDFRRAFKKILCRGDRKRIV
Method in brief: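 Membranes from Sf9 cells expressing the receptor were incubated with 1 nM [3H]MK-912 for 60 minutes at 25° C in 50 mM Tris-HCl pH 7.4, 12.5 mM MgCl2, 2 mM EDTA. 10 μM WB-4101 defined non-specific binding. Values are percent inhibition of specific bound radioactivity after filtration.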

[7] = target: T7, human recombinant serotonin (5-Hydroxytryptamine) 5-HT2A receptor (Homo sapiens, UniProt P28223); experiment: Serotonin 5-HT2A radioligand binding ([3H]Ketanserin); settings: for Inhibition of ligand binding, Ser. 5-HT2A: percent inhibition of specific binding
T7 construct: expressed in transfected cells; host or cells: CHO-K1 cells
T7 sequence (P28223 whole entry): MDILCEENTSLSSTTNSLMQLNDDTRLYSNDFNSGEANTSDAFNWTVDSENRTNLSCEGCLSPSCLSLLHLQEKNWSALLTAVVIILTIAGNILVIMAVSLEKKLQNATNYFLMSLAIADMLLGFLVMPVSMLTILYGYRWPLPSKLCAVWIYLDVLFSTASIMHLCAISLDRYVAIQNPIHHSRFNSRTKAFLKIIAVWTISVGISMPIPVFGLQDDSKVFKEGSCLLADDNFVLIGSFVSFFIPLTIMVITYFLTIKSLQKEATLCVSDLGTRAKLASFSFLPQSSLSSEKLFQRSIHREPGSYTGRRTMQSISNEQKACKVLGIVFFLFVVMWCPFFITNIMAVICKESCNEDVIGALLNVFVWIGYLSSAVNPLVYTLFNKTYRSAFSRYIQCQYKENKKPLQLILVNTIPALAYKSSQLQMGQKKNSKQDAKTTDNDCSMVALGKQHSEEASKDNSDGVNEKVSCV
Description: Compounds of the invention were incubated with 0.5 nM [^3H]Ketanserin for 60 minutes at 25° C. Non-specific binding was estimated in the presence of 1 μM Mianserin. Receptor proteins were filtered and washed, the filters were then counted to determine [^3H]Ketanserin specifically bound. […] Biochemical assay results are presented as the percent inhibition of specific binding in Table 6.

[8] = 1 μM compound, 0.1 nM [125I]Aminopotentidine, read-out: Histamine Binding H2, percent inhibition of specific binding
[9] = percent inhibition of specific binding, screened at 1 μM, read-out: Inhibition of ligand binding, Hist. H2
[10] = 0.1 nM [125I]Aminopotentidine, read-out: Histamine Binding H2, percent inhibition of specific binding

Structure (SMILES)	Inhibition of ligand binding, Dop. D2L [1] [%]	Inhibition of ligand binding, Ser. 5-HT7 [2] [%]	Inhibition of ligand binding, Ser. 5-HT6 [3] [%]	inhibition at 1 µM [4, 8] [%]	inhibition at 1 µM [4, 9] [%]	Inhibition of ligand binding, Ser. 5-HT2C [5] [%]	Inhibition of ligand binding, Adren. alpha2A [6] [%]	Inhibition of ligand binding, Ser. 5-HT2A [7] [%]	inhibition at 0.3 µM ([4]; 0.3 μM compound, 0.1 nM [125I]Aminopotentidine, read-out: Histamine Binding H2, percent inhibition of specific binding) [%]	inhibition at 0.1 µM [4, 10] [%]	inhibition at 1 µM ([1]; compounds screened at 1 μM, read-out: Inhibition of ligand binding, Dop. D2L (percent inhibition of specific binding)) [%]	inhibition at 1 µM ([2]; compounds screened at 1 μM, read-out: Inhibition of ligand binding, Ser. 5-HT7 (percent inhibition of specific binding)) [%]	inhibition at 1 µM ([3]; compounds screened at 1 μM, read-out: Inhibition of ligand binding, Ser. 5-HT6 (percent inhibition of specific binding)) [%]	inhibition at 1 µM ([4]; compounds screened at 1 μM, read-out: Inhibition of ligand binding, Hist. H2 (percent inhibition of specific binding)) [%]	inhibition at 1 µM ([5]; compounds screened at 1 μM, read-out: Inhibition of ligand binding, Ser. 5-HT2C (percent inhibition of specific binding)) [%]	inhibition at 1 µM ([6]; compounds screened at 1 μM, read-out: Inhibition of ligand binding, Adren. alpha2A (percent inhibition of specific binding)) [%]	inhibition at 1 µM ([7]; read-out: Inhibition of ligand binding, Ser. 5-HT2A (percent inhibition of specific binding)) [%]
CCOC(=O)N1CCc2c(c3cc(-c4cccnc4)ccc3n2CCc2ccc(C)nc2)C1 [Compound 19, ethyl 3,4-dihydro-5-(2-(6-methylpyridin-3-yl)ethyl)-8-(pyridin-3-yl)-1H-pyrido[4,3-b]indole-2(5H)-carboxylate]	−5	12	−5	10	10	−17	−8	2									
CCOC(=O)N1CCc2c(c3cc(C)ccc3n2CCc2ccccc2)C1 [Compound 24, ethyl 3,4-dihydro-8-methyl-5-phenethyl-1H-pyrido[4,3-b]indole-2(5H)-carboxylate]	3	−2	−4	13	13	1	7	−2									
CN1CCc2c(c3cc(Cl)ccc3n2CCc2ccccn2)C1 [Compound 30, 8-chloro-2,3,4,5-tetrahydro-2-methyl-5-(2-(pyridin-2-yl)ethyl)-1H-pyrido[4,3-b]indole]	29	99	90	34	34	90	84	91									
Cc1ccc2c(c1)c1c(n2CCc2ccc(Cl)cc2)CCN(C)C1 [Compound 32, 5-(4-chlorophenethyl)-2,3,4,5-tetrahydro-2,8-dimethyl-1H-pyrido[4,3-b]indole]	82	101	101	101	101	100	97	96	99								
Cc1ccc2c(c1)c1c(n2CCc2ccc(F)cc2)CCN(C)C1 [Compound 33, 5-(4-fluorophenethyl)-2,3,4,5-tetrahydro-2,8-dimethyl-1H-pyrido[4,3-b]indole]	88	91	100	91	91	95	98	97		41							
Cc1ccc2c(c1)c1c(n2CCc2ccccc2F)CCN(C)C1 [Compound 34, 5-(2-fluorophenethyl)-2,3,4,5-tetrahydro-2,8-dimethyl-1H-pyrido[4,3-b]indole]	88	97	104	89	89	96	99	99									
CN1CCc2c(c3cc(Cl)ccc3n2CCc2ccccc2)C1 [Compound 36, 8-chloro-2,3,4,5-tetrahydro-2-methyl-5-phenethyl-1H-pyrido[4,3-b]indole]	92	99	104	92	92	94	97	98		41							
Cc1ccc2c(c1)c1c(n2CCC2CCCCC2)CCN(C)C1 [Compound 163, 5-(2-cyclohexylethyl)-2,3,4,5-tetrahydro-2,8-dimethyl-1H-pyrido[4,3-b]indole]	36	95	99	88	88	99	93	92									
Cc1ccc2c(c1)c1c(n2CCc2nc(-c3ccccc3)cs2)CCN(C)C1 [Compound C1-5]											36	93	101	73	93	92	97
